# Patent US20050267055A1, “Agent for improvement of glucose tolerance” (USE-TECHNO CORPORATION, priority 2003, published 2005)
# Assay: Glucose tolerance test in a dog after corosolic acid administration
# Assay type: in vivo
# Conditions: dog (beagle), 20 mg/kg of body weight corosolic acid single administration; 75 g grape sugar oral load; tests up to 28 days after administration vs 60 days before
# Protocol: (Glucose Tolerance Improving Effect of Corosolic Acid Administration in a Dog)
# A dog (beagle) was used as the test animal. 20 mg/kg of body weight of purified corosolic acid extracted from banaba leaves was administered to the animal, and the glucose tolerance improvement effect was evaluated.
# The glucose tolerance was evaluated by performing glucose tolerance tests according to the procedure described in (1)-(3) below. A glucose tolerance test was performed 60 days before corosolic acid administration, immediately after corosolic acid administration, and at 7 days, 14 days, 21 days and 28 days after corosolic acid administration. At time points other than immediately after corosolic acid administration, the glucose tolerance test was performed immediately after the same dose of D-sorbitol was orally administered as a placebo instead of corosolic acid. • (1) 75 g of grape sugar is administered orally to the dog. • (2) Blood is collected from the dog's vein at 0 minute, 30 minutes, 60 minutes, 90 minutes, 120 minutes, 180 minutes and 240 minutes after grape sugar administration, and the blood glucose level of the collected blood is measured using GLUTEST SENSOR (trade name, manufactured by SANWA KAKAGU KENKYUSHO CO.,LTD). • (3) The total of 7 blood glucose levels measured above in (2) is represented by ΣBG [mg/dl].
compound,measurement,value
C[C@H]1[C@H](C)CC[C@]2(C(=O)O)CC[C@]3(C)C(=CC[C@@H]4[C@@]5(C)C[C@@H](O)[C@H](O)C(C)(C)[C@@H]5CC[C@]43C)[C@H]12 [corosolic acid],ΣBG (total of 7 blood glucose levels in glucose tolerance test),lower values for 28 days after corosolic acid adminisration than before corosolic acid adminisration
